Measured values published in ChEMBL document CHEMBL5505982, “Design, synthesis, biological evaluation and in silico studies of novel quinoline derivatives as potential radioprotective molecules targeting the TLR2 and p53 pathways” (Eur J Med Chem, 2024).
The source made the active and inactive calls. The calls are words filed in the database; no cut-off is given here.

What was measured:
AHH-1 [1] = assay: Cytotoxicity against human AHH-1 cells assessed as inhibition of cell growth incubated for 24 hrs by CCK-8 assay; type: functional, cell-based; details: AHH-1, 24 h
AHH-1 [2] = assay: Anti-iradiation activity against human AHH-1 cells assessed as cell viability at 10 micromol preincubated with compound for 24 hrs followed by irradiation with 8 Gy and measured after 24 hrs by CCK-8 assay; type: functional; details: dose 10 µmol; time 48 hrs
AHH-1 [3] = assay: Induction of apoptosis in human AHH-1 cells assessed as early apoptotic cells preincubated with compound for 24 hrs followed by irradiation with 4 Gy and measured after 24 hrs of radiation by Annexin V-FITC/PI staining based flow cytometry analysis (reference value: 14.3%); type: functional; details: time 48 hrs
Mus musculus [4] = assay: Radioprotective activity in irradiated C57BL/6J mouse model assessed as increase in platelets count at 300 mg/kg, ip preincubated with compound for 15 to 1440 mins followed by irradiation with 6.5 Gy and measured after 10 to 13 days of radiation; type: functional, organism-based
Mus musculus [5] = assay: Radioprotective activity in irradiated C57BL/6J mouse model assessed as increase in WBC count at 300 mg/kg, ip preincubated with compound for 15 to 1440 mins followed by irradiation with 6.5 Gy and measured on day 1 (reference value: 43.39%); type: functional; details: time 15-2880 min
AHH-1 [6] = assay: Induction of apoptosis in human AHH-1 cells assessed as late apoptotic cells preincubated with compound for 24 hrs followed by irradiation with 4 Gy and measured after 24 hrs of radiation by Annexin V-FITC/PI staining based flow cytometry analysis (reference value: 17.7%); type: functional; details: time 48 hrs
AHH-1 [7] = assay: Induction of apoptosis in human AHH-1 cells assessed as viable cells preincubated with compound for 24 hrs followed by irradiation with 8 Gy and measured after 24 hrs of radiation by Annexin V-FITC/PI staining based flow cytometry analysis (reference value: 45.1%); type: functional; details: time 48 hrs
AHH-1 [8] = assay: Induction of apoptosis in human AHH-1 cells assessed as late apoptotic cells preincubated with compound for 24 hrs followed by irradiation with 6 Gy and measured after 24 hrs of radiation by Annexin V-FITC/PI staining based flow cytometry analysis (reference value: 29.8%); type: functional; details: time 48 hrs
AHH-1 [9] = assay: Induction of apoptosis in human AHH-1 cells assessed as necrotic cells preincubated with compound for 24 hrs followed by irradiation with 8 Gy and measured after 24 hrs of radiation by Annexin V-FITC/PI staining based flow cytometry analysis (reference value: 4.86%); type: functional; details: time 48 hrs
AHH-1 [10] = assay: Induction of apoptosis in human AHH-1 cells assessed as viable cells preincubated with compound for 24 hrs followed by irradiation with 6 Gy and measured after 24 hrs of radiation by Annexin V-FITC/PI staining based flow cytometry analysis (reference value: 52.3%); type: functional; details: time 48 hrs
Mus musculus [11] = assay: Radioprotective activity in irradiated C57BL/6J mouse model assessed as increase in RBC count at 300 mg/kg, ip preincubated with compound for 15 to 1440 mins followed by irradiation with 6.5 Gy and measured after 10 to 13 days of radiation; type: functional, organism-based; details: Erythrocyte
AHH-1 [12] = assay: Induction of apoptosis in human AHH-1 cells assessed as viable cells preincubated with compound for 24 hrs followed by irradiation with 4 Gy and measured after 24 hrs of radiation by Annexin V-FITC/PI staining based flow cytometry analysis (reference value: 66.9 %); type: functional; details: time 48 hrs
Mus musculus [13] = assay: Radioprotective activity in irradiated C57BL/6J mouse model assessed as increase in RBC count at 300 mg/kg, ip preincubated with compound for 15 to 1440 mins followed by irradiation with 6.5 Gy and measured after 13 days of radiation; type: functional, organism-based; details: Erythrocyte, time 15-20160 min
AHH-1 [14] = assay: Induction of apoptosis in human AHH-1 cells assessed as early apoptotic cells preincubated with compound for 24 hrs followed by irradiation with 6 Gy and measured after 24 hrs of radiation by Annexin V-FITC/PI staining based flow cytometry analysis (reference value: 14.1%); type: functional; details: time 48 hrs
AHH-1 [15] = assay: Induction of apoptosis in human AHH-1 cells assessed as early apoptotic cells preincubated with compound for 24 hrs followed by irradiation with 8 Gy and measured after 24 hrs of radiation by Annexin V-FITC/PI staining based flow cytometry analysis (reference value: 16.5%); type: functional; details: time 48 hrs
Mus musculus [16] = assay: Radioprotective activity in irradiated C57BL/6J mouse model assessed as increase in platelets count at 300 mg/kg, ip preincubated with compound for 15 to 1440 mins followed by irradiation with 6.5 Gy and measured after 3 to 10 days of radiation; type: functional, organism-based
Mus musculus [17] = assay: Radioprotective activity in irradiated C57BL/6J mouse model assessed as increase in HGB count at 300 mg/kg, ip preincubated with compound for 15 to 1440 mins followed by irradiation with 6.5 Gy and measured after 13 days of radiation; type: functional, organism-based; details: time 15-20160 min
Mus musculus [18] = assay: Radioprotective activity in C57BL/6J mouse assessed as survival rate at 30 mg/kg, ip preincubated with compound for 15 to 1440 mins followed by irradiation and measured at day 30; type: functional; details: light or radiation study, time 15-44640 min
Mus musculus [19] = assay: Radioprotective activity in irradiated C57BL/6J mouse model assessed as increase in HGB count at 300 mg/kg, ip preincubated with compound for 15 to 1440 mins followed by irradiation with 6.5 Gy and measured after 1 to 10 days of radiation; type: functional, organism-based
AHH-1 [20] = assay: Induction of apoptosis in human AHH-1 cells assessed as necrotic cells preincubated with compound for 24 hrs followed by irradiation with 6 Gy and measured after 24 hrs of radiation by Annexin V-FITC/PI staining based flow cytometry analysis (reference value: 3.71%); type: functional; details: time 48 hrs
AHH-1 [21] = assay: Induction of apoptosis in human AHH-1 cells assessed as necrotic cells preincubated with compound for 24 hrs followed by irradiation with 4 Gy and measured after 24 hrs of radiation by Annexin V-FITC/PI staining based flow cytometry analysis (reference value: 1.06%); type: functional; details: time 48 hrs
Mus musculus [22] = assay: Radioprotective activity in irradiated C57BL/6J mouse model assessed as increase in platelets count at 300 mg/kg, ip preincubated with compound for 15 to 1440 mins followed by irradiation with 6.5 Gy and measured after 2 days of radiation; type: functional, organism-based; details: time 15-4320 min
AHH-1 [23] = assay: Induction of apoptosis in human AHH-1 cells assessed as late apoptotic cells preincubated with compound for 24 hrs followed by irradiation with 8 Gy and measured after 24 hrs of radiation by Annexin V-FITC/PI staining based flow cytometry analysis (reference value: 33.6%); type: functional; details: time 48 hrs

## Clc1ccc2nc(SCc3ccc(Br)cc3)ccc2c1
AHH-1 [1]
  IC50: > 640 µM

## O=S(=O)(Cc1ccc(Br)cc1)c1ccc2cc(Cl)ccc2n1
AHH-1 [1]
  IC50: > 640 µM

## [O-][S+](Cc1ccccc1)c1ccc2cc(Br)ccc2n1 (centres undefined)
AHH-1 [1]
  IC50: > 640 µM

## [O-][S+](Cc1ccc(Br)cc1)c1ccc2cc(Cl)ccc2n1 (centres undefined)
AHH-1 [1]
  IC50: > 640 µM

## O=S(=O)(Cc1ccc(F)cc1)c1ccc2cc(Br)ccc2n1
AHH-1 [1]
  IC50: > 640 µM

## O=S(=O)(Cc1ccccc1)c1ccc2cc(Br)ccc2n1
AHH-1 [1]
  IC50: 169 µM

## Fc1ccc(CSc2ccc3cc(Br)ccc3n2)cc1
AHH-1 [2]
  Activity: 26.21%
AHH-1 [1]
  IC50: > 640 µM

## O=S(=O)(Cc1ccccc1)c1ccc2cc(F)ccc2n1
AHH-1 [1]
  IC50: > 640 µM

## O=C([O-])c1ccc(/C=C/S(=O)(=O)Cc2ccc(Cl)cc2)cc1.[Na+] [RECILISIB SODIUM]
AHH-1 [3]
  Activity: 16.5%
Mus musculus [4]
  Activity: Active
Mus musculus [5]
  Activity: 47.73%
AHH-1 [6]
  Activity: 31.1%
AHH-1 [7]
  Activity: 48%
AHH-1 [8]
  Activity: 28.4%
AHH-1 [9]
  Activity: 8.35%
AHH-1 [10]
  Activity: 49.2%
Mus musculus [11]
  Activity: Active
AHH-1 [12]
  Activity: 47.5%
Mus musculus [13]
  Activity: Active
AHH-1 [14]
  Activity: 14.8%
AHH-1 [15]
  Activity: 16.4%
Mus musculus [16]
  Activity: inactive
Mus musculus [17]
  Activity: Active
Mus musculus [18]
  survival at 30 mg/kg: 40%
Mus musculus [19]
  Activity: inactive
AHH-1 [20]
  Activity: 7.68%
AHH-1 [1]
  IC50: > 640 µM
AHH-1 [21]
  Activity: 4.82%
Mus musculus [22]
  Activity: Active
AHH-1 [23]
  Activity: 27.3%

## [O-][S+](Cc1ccc(F)cc1)c1ccc2cc(F)ccc2n1 (centres undefined)
AHH-1 [1]
  IC50: > 640 µM

## O=S(=O)(Cc1ccc(F)cc1)c1ccc2cc(F)ccc2n1
AHH-1 [2]
  Activity: 27.51%
AHH-1 [1]
  IC50: > 640 µM

## O=C(O)c1ccc(C[S+]([O-])c2ccc3cc(F)ccc3n2)cc1 (centres undefined)
AHH-1 [2]
  Activity: 30.18%
Mus musculus [18]
  survival at 30 mg/kg: 50%
AHH-1 [1]
  IC50: > 640 µM

## O=S(=O)(Cc1ccc(Cl)cc1)c1ccc2ccccc2n1
AHH-1 [1]
  IC50: 129 µM

## O=S(=O)(Cc1ccc(Cl)cc1)c1ccc2cc(Cl)ccc2n1
AHH-1 [1]
  IC50: > 640 µM

## [O-][S+](Cc1ccc(Br)cc1)c1ccc2cc(Br)ccc2n1 (centres undefined)
AHH-1 [1]
  IC50: > 640 µM

## Clc1ccc(CSc2ccc3cc(Cl)ccc3n2)cc1
AHH-1 [1]
  IC50: > 640 µM

## O=C(O)c1ccc(CS(=O)(=O)c2ccc3cc(F)ccc3n2)cc1
AHH-1 [1]
  IC50: > 640 µM

## Fc1ccc(CSc2ccc3cc(Cl)ccc3n2)cc1
AHH-1 [1]
  IC50: 153 µM

## O=S(=O)(Cc1ccc(Br)cc1)c1ccc2ccccc2n1
AHH-1 [1]
  IC50: > 640 µM

## N#Cc1ccc(CSc2ccc3cc(Br)ccc3n2)cc1
AHH-1 [1]
  IC50: 146 µM

## Brc1ccc(CSc2ccc3cc(Br)ccc3n2)cc1
AHH-1 [1]
  IC50: > 640 µM

## Fc1ccc(CSc2ccc3ccccc3n2)cc1
AHH-1 [1]
  IC50: > 640 µM

## [O-][S+](Cc1ccc(F)cc1)c1ccc2ccccc2n1 (centres undefined)
AHH-1 [1]
  IC50: > 640 µM

## [O-][S+](Cc1ccc(F)cc1)c1ccc2cc(Cl)ccc2n1 (centres undefined)
AHH-1 [1]
  IC50: > 640 µM

## [O-][S+](Cc1ccc(Cl)cc1)c1ccc2ccccc2n1 (centres undefined)
AHH-1 [1]
  IC50: 97 µM

## Brc1ccc2nc(SCc3ccccc3)ccc2c1
AHH-1 [1]
  IC50: > 640 µM

## N#Cc1ccc(CS(=O)(=O)c2ccc3cc(Cl)ccc3n2)cc1
AHH-1 [1]
  IC50: > 640 µM

## N#Cc1ccc(C[S+]([O-])c2ccc3cc(Br)ccc3n2)cc1 (centres undefined)
AHH-1 [1]
  IC50: 212 µM

## O=S(=O)(Cc1ccc(Cl)cc1)c1ccc2cc(Br)ccc2n1
AHH-1 [2]
  Activity: 27.81%
AHH-1 [1]
  IC50: > 640 µM

## Fc1ccc(CSc2ccc3cc(F)ccc3n2)cc1
AHH-1 [1]
  IC50: > 640 µM

## O=S(=O)(Cc1ccc(F)cc1)c1ccc2cc(Cl)ccc2n1
AHH-1 [1]
  IC50: > 640 µM

## O=S(=O)(Cc1ccc(Br)cc1)c1ccc2cc(Br)ccc2n1
AHH-1 [1]
  IC50: > 640 µM

## Clc1ccc(CSc2ccc3cc(Br)ccc3n2)cc1
AHH-1 [1]
  IC50: 215 µM

## [O-][S+](Cc1ccc(Cl)cc1)c1ccc2cc(Cl)ccc2n1 (centres undefined)
AHH-1 [1]
  IC50: > 640 µM

## [O-][S+](Cc1ccc(Br)cc1)c1ccc2ccccc2n1 (centres undefined)
AHH-1 [1]
  IC50: > 640 µM

## N#Cc1ccc(C[S+]([O-])c2ccc3cc(Cl)ccc3n2)cc1 (centres undefined)
AHH-1 [1]
  IC50: > 640 µM

## Brc1ccc(CSc2ccc3ccccc3n2)cc1
AHH-1 [1]
  IC50: 174 µM

## N#Cc1ccc(CSc2ccc3cc(Cl)ccc3n2)cc1
AHH-1 [1]
  IC50: > 640 µM

## Clc1ccc(CSc2ccc3ccccc3n2)cc1
AHH-1 [1]
  IC50: 73 µM

## [O-][S+](Cc1ccc(Cl)cc1)c1ccc2cc(Br)ccc2n1 (centres undefined)
AHH-1 [2]
  Activity: 30.63%
AHH-1 [1]
  IC50: 224 µM

## Fc1ccc2nc(SCc3ccccc3)ccc2c1
AHH-1 [1]
  IC50: > 640 µM

## O=C(O)c1ccc(CSc2ccc3cc(Cl)ccc3n2)cc1
AHH-1 [1]
  IC50: > 640 µM
